Measurements as given in patent US20250248209A1, “LIGHT-EMITTING DEVICE” (SEMICONDUCTOR ENERGY LABORATORY CO., LTD., priority 2024, published 2025).
In brackets after ≈: the same amount, converted by molar mass. Entries after “also recorded” stand apart in the source; their conditions may differ.

Assay: Solubility test of each organic compound in pure water by LC-MS analysis
Assay type: physicochemical
Conditions: 1 mg compound in 1 mL water, ultrasonic waves five minutes, filtered, evaluated from LC peak area; for solubility at 5 min: pure water, thermodynamic from solid
Protocol: In the LC-MS analysis, liquid chromatography (LC) separation was carried out with ACQUITY UPLC (Waters Corporation), and mass spectrometry (MS) analysis was carried out with Xevo G2 Tof MS (Waters Corporation). Note that this analysis was performed on Hid2Phen, Pyrrd-Phen, and PrdP2Phen. ACQUITY UPLC BEH C8 (2.1×100 mm, 1.7 μm) was used as a column for the LC separation. Acetonitrile was used for Mobile Phase A and a 0.1% aqueous solution of formic acid was used for Mobile Phase B. The injection amount of the sample was 5.0 μL. Note that in the analysis, the wavelength of a photodiode array detector was set to 263 nm±1 nm.
Then, in a 5-mL sample bottle, 1 mg of each organic compound was put and 1 mL of water was added thereto. The mixture was irradiated with ultrasonic waves for five minutes. The mixture was filtered through a membrane filter to remove the solid. The resulting solution was subjected to the LC-MS analysis to create a chromatogram. The solubility was evaluated from the area of a peak in the chromatograph.

Row | Compound | solubility at 5 min [µg/mL] | Solubility in pure water
1 | c1cc(N2CC3CCCCC3C2)c2ccc3c(N4CC5CCCCC5C4)ccnc3c2n1 (stereo not drawn) [Hid2Phen, 4,7-di(2,3,3a,4,5,6,7,7a-octahydro-^1H-isoindol-2-yl)-1,10-phenanthroline] | 5.5 (≈ 12.9 µM) | –
2 | c1cc(-c2ccc(N3CCCC3)cc2)c2ccc3c(-c4ccc(N5CCCC5)cc4)ccnc3c2n1 [PrdP2Phen, 4,7-bis[4-(1-pyrrolidinyl)phenyl]-1,10-phenanthroline] | – | below the lower detection limit; also recorded: extremely low solubility in pure water; also recorded: Not detected
3 | c1cc(N2CCCC2)c2ccc3c(N4CCCC4)ccnc3c2n1 [Pyrrd-Phen, 4,7-di-1-pyrrolidinyl-1,10-phenanthroline] | ≥ 50 | –
